# Laboratory results as given in PubChem BioAssay AID1845198 (Molecular Pharmacology Branch, DTP, NCI, 2023).
# Test system: 425362-245-T-J1 tumor spheroids, viability % test/control
# Assay: Anticancer human tumor 425362-245-T-J1 patient-derived melanoma cell line growth inhibition
# Conditions: spheroids with HUVEC and MSC; for IC50: curve of first compound; for viability, T/C: stronger effect = lower value
# Procedure, shortened: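 Complex tumor spheroids combined malignant cells with endothelial cells and mesenchymal stem cells. DNA-damaging drugs and DNA repair inhibitors were tested alone and in combination, at half-log dilutions down from clinical Cmax (top 10 microM if Cmax unknown), 0.25% DMSO final.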
# [1] = second compound 30 pM, first compound 0.00949 µM
# [2] = second compound 30 pM, first compound 0.03 µM
# [3] = second compound 30 pM, first compound 0.0949 µM
# [4] = second compound 30 pM, first compound 0.3 µM
# [5] = second compound 30 pM, first compound 0.949 µM
# [6] = second compound 30 pM, first compound 3 µM
# [7] = second compound 94.9 pM, first compound 0.00949 µM
# [8] = second compound 94.9 pM, first compound 0.03 µM
# [9] = second compound 94.9 pM, first compound 0.0949 µM
# [10] = second compound 94.9 pM, first compound 0.3 µM
# [11] = second compound 94.9 pM, first compound 0.949 µM
# [12] = second compound 94.9 pM, first compound 3 µM
# [13] = second compound 0.0003 µM, first compound 0.00949 µM
# [14] = second compound 0.0003 µM, first compound 0.03 µM
# [15] = second compound 0.0003 µM, first compound 0.0949 µM
# [16] = second compound 0.0003 µM, first compound 0.3 µM
# [17] = second compound 0.0003 µM, first compound 0.949 µM
# [18] = second compound 0.0003 µM, first compound 3 µM
# [19] = second compound 0.000949 µM, first compound 0.00949 µM
# [20] = second compound 0.000949 µM, first compound 0.03 µM
# [21] = second compound 0.000949 µM, first compound 0.0949 µM
# [22] = second compound 0.000949 µM, first compound 0.3 µM
# [23] = second compound 0.000949 µM, first compound 0.949 µM
# [24] = second compound 0.000949 µM, first compound 3 µM
# [25] = second compound 0.003 µM, first compound 0.00949 µM
# [26] = second compound 0.003 µM, first compound 0.03 µM
# [27] = second compound 0.003 µM, first compound 0.0949 µM
# [28] = second compound 0.003 µM, first compound 0.3 µM
# [29] = second compound 0.003 µM, first compound 0.949 µM
# [30] = second compound 0.003 µM, first compound 3 µM
# 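Also: spheroids exposed to agents for 7 days.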
# 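For viability, T/C in this document: 100% = DMSO vehicle control viability.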
Compound,IC50 (second compound 30 pM) [nM],IC50 (second compound 94.9 pM) [nM],IC50 (second compound 0.0003 µM) [nM],IC50 (second compound 0.000949 µM) [nM],IC50 (second compound 0.003 µM) [nM],"viability, T/C [3] [%]","viability, T/C [4] [%]","viability, T/C [5] [%]","viability, T/C [6] [%]","viability, T/C [9] [%]","viability, T/C [10] [%]","viability, T/C [11] [%]","viability, T/C [12] [%]","viability, T/C [15] [%]","viability, T/C [16] [%]","viability, T/C [17] [%]","viability, T/C [18] [%]","viability, T/C [21] [%]","viability, T/C [22] [%]","viability, T/C [23] [%]",other results
CNCc1ccc(-c2cc(-c3nc(-c4ccc(S(=O)(=O)C(C)C)cc4)cnc3N)on2)cc1 + COc1cc2c(cc1O)CCNC21CSC2c3c(OC(C)=O)c(C)c4c(c3C(COC1=O)N1C(O)C3Cc5cc(C)c(OC)c(O)c5C(C21)N3C)OCO4,161,131,< 9.49,< 9.49,< 9.49,85.1,8.53,2.32,0.13,68.1,3.99,1.51,0.15,16.4,1.69,0.79,0.15,0.27,0.35,0.13,"viability, T/C [1]: 108%; viability, T/C [2]: 113%; viability, T/C [7]: 96.3%; viability, T/C [8]: 103%; viability, T/C [13]: 43.7%; viability, T/C [14]: 37%; viability, T/C [19]: 0.41%; viability, T/C [20]: 0.41%; viability, T/C [24]: 0.17%; viability, T/C [25]: 0.26%; viability, T/C [26]: 0.28%; viability, T/C [27]: 0.27%; viability, T/C [28]: 0.22%; viability, T/C [29]: 0.2%; viability, T/C [30]: 0.27%"
Cc1sc2c(c1C)C(c1ccc(Cl)cc1)=NC(CC(=O)Nc1ccc(O)cc1)c1nnc(C)n1-2 (stereo not given) + COc1cc2c(cc1O)CCNC21CSC2c3c(OC(C)=O)c(C)c4c(c3C(COC1=O)N1C(O)C3Cc5cc(C)c(OC)c(O)c5C(C21)N3C)OCO4,69.4,67.7,11.2,< 9.49,< 9.49,46,14.2,1.75,1.2,40.3,5.16,2.11,0.76,17.1,3.14,0.36,0.19,0.1,0.04,0.04,"viability, T/C [1]: 98.3%; viability, T/C [2]: 69.6%; viability, T/C [7]: 94.7%; viability, T/C [8]: 76.6%; viability, T/C [13]: 52.1%; viability, T/C [14]: 37.9%; viability, T/C [19]: 0.26%; viability, T/C [20]: 0.2%; viability, T/C [24]: 0.14%; viability, T/C [25]: 0.25%; viability, T/C [26]: 0.27%; viability, T/C [27]: 0.18%; viability, T/C [28]: 0.17%; viability, T/C [29]: 0.18%; viability, T/C [30]: 0.29%"
Cn1ncnc1[C@H]1c2n[nH]c(=O)c3cc(F)cc(c23)N[C@@H]1c1ccc(F)cc1 + COc1cc2c(cc1O)CCNC21CSC2c3c(OC(C)=O)c(C)c4c(c3C(COC1=O)N1C(O)C3Cc5cc(C)c(OC)c(O)c5C(C21)N3C)OCO4,12.5,< 9.49,< 9.49,< 9.49,< 9.49,19.6,13.2,6.87,1.96,14.8,9.34,4.06,1.23,3.81,4.9,1.34,0.77,0.27,0.14,0.13,"viability, T/C [1]: 56.7%; viability, T/C [2]: 30.3%; viability, T/C [7]: 42.5%; viability, T/C [8]: 20%; viability, T/C [13]: 25.2%; viability, T/C [14]: 6.95%; viability, T/C [19]: 0.45%; viability, T/C [20]: 0.42%; viability, T/C [24]: 0.22%; viability, T/C [25]: 0.34%; viability, T/C [26]: 0.37%; viability, T/C [27]: 0.33%; viability, T/C [28]: 0.35%; viability, T/C [29]: 0.3%; viability, T/C [30]: 0.36%"
O=C(c1cc(Cc2n[nH]c(=O)c3ccccc23)ccc1F)N1CCN(C(=O)C2CC2)CC1 + COc1cc2c(cc1O)CCNC21CSC2c3c(OC(C)=O)c(C)c4c(c3C(COC1=O)N1C(O)C3Cc5cc(C)c(OC)c(O)c5C(C21)N3C)OCO4,2110,1420,< 94.9,< 94.9,< 94.9,87.2,93.6,67.9,43.4,83.1,79.2,56.2,36.3,32.6,35.5,22.8,7.06,0.47,0.29,0.17,"viability, T/C (second compound 30 pM, first compound 9.49 µM): 10.1%; viability, T/C (second compound 30 pM, first compound 30 µM): 6.76%; viability, T/C (second compound 94.9 pM, first compound 9.49 µM): 5.46%; viability, T/C (second compound 94.9 pM, first compound 30 µM): 4.13%; viability, T/C (second compound 0.0003 µM, first compound 9.49 µM): 1.54%; viability, T/C (second compound 0.0003 µM, first compound 30 µM): 1.07%; viability, T/C [24]: 0.09%; viability, T/C (second compound 0.000949 µM, first compound 9.49 µM): 0.04%; viability, T/C (second compound 0.000949 µM, first compound 30 µM): 0.16%; viability, T/C [27]: 0.3%; viability, T/C [28]: 0.32%; viability, T/C [29]: 0.26%; viability, T/C [30]: 0.14%; viability, T/C (second compound 0.003 µM, first compound 9.49 µM): 0.15%; viability, T/C (second compound 0.003 µM, first compound 30 µM): 0.3%"
